In US12376594B2, “Pest control kit and method” (priority 2019, dated 2025):

Legend:
[1] = test system: Welsh chafer, Hoplia philanthus grubs; assay: Field trial, control of chafer grubs in golf course; format: in vivo; details: The Grove Golf Club, nematodes 2.5 billion per hectare twice weekly, Chlorpyrifos 2 litres a.i. per hectare once
Method: Trial was conducted at The Grove Golf Club, Watford, London, UK between May 2017 and October 2018. Treatments consisted of: Heterorhabditis bacteriophora 2.5 billion/ha applied alone, Pest control kit-C 2.5 billion/ha applied with Wetting agent composition (10 L/ha) and Chlorpyrifos (Equity) 2 L a.i./ha. All treatments were applied using soil injector followed conventional boom sprayer. Soil samples were taken at 2, 4, 6, and 8 weeks post application to assess grub population.
Field trials were conducted on a naturally infested tees, green and fairways containing a mixture of Welsh chafer, Hoplia philanthus (90%), Garden chafer, Phyllopertha horticola (3%), Summer chafer, Amphimallon solstitialis (1%), May beetle, Melolontha (4%) and wireworms Agriotes species (3%) at The Grove Golf Club, Watford, and Ashridge Golf Club, Berkhamsted, UK. […] No natural nematodes were detected by baiting soil samples with Galleria mellonella larvae.
One week before treatment, the pre-treatment larval density was determined in tees, greens and fairways (see FIG. 4) by taking three 16×16×10 to 15 cm soil plugs with a shovel or golf Hole Cutter (10 cm diameter). The living larvae were counted and expressed as number of larvae per square meter. […]
The treatments included: • 1. […] The larval density after treatment was determined 2, 4, 6, or 8 weeks after nematode or chlorpyrifos application. […]

sciarid fly larvae = assay: Field trial, control of sciarid fly larvae in mushroom production; format: in vivo, Lycoriella spp.; details: first week of application
Method: Treatments consisted of: Carbofuran, Teflubenzuron, Steinernema feltiae alone or with Wetting agent composition (as Pest control kit-S). Trial was conducted in mushroom production farm in UK in 2016-17. Mushrooms were naturally infected with sciarid larvae and numbers counted week 1 and 3 post treatments. Each treatment was replicated 4 times with 15 plants/treatment.
Fungus gnats, also known as sciarid flies, found on and around growing media, are a major pest for greenhouse and polytunnel ornamental crops. The sciarid fly larvae are responsible for causing damage to an extensive variety of economically important potted plants directly through feeding on roots and stalk tissue of seedlings, cuttings and younger plants. They also cause damage indirectly through the transmission of fungal disease through the wounds caused by sciarid larvae. Pot plants known to be susceptible to sciarid attack include Poinsettia, Azalea, Cyclamen, Kalanchoe, Exacum, Gerbera, Begonia and others. All kinds of young plants and young rooted cuttings (vegetables, ornamentals and young nursery plants) are highly susceptible to sciarid larvae. […] Mushrooms were harvested for up to 4 weeks and number of dead and live larvae were counted. […]
The number of surviving larvae was transformed into percentage efficacy using the equation below and analysed using analysis of variance (ANOVA). […]

| Compound | Control of chafer grubs [1] | Sciarid fly larvae control (sciarid fly larvae) |
| --- | --- | --- |
| CCOP(=S)(OCC)Oc1nc(Cl)c(Cl)cc1Cl [Chlorpyrifos] | 62% | – |
| O=C(NC(=O)c1c(F)cccc1F)Nc1cc(Cl)c(F)c(Cl)c1F [Teflubenzuron] | – | 71% |
